{"source": "paper PMC4672894", "about": "“Bromodomain Proteins Contribute to Maintenance of Bloodstream Form Stage Identity in the African Trypanosome” (PLoS Biology, 2015)", "test_in_all_cases": "isothermal titration calorimetry", "type_in_all_cases": "binding", "key": {"[1]": {"biological_target": "T1, Bdf2 bromodomain (Bdf2^9-123) (Trypanosoma brucei, UniProt Q38AM1)", "T1 construct": "gene Tb10.6k15.3240; bromodomain, residues 9-123, amplified from genomic DNA, pET28a with N-terminal PreScission-cleavable His6 tag, E. coli; crystal model residues 9-114", "T1 sequence (Q38AM1 9-123)": "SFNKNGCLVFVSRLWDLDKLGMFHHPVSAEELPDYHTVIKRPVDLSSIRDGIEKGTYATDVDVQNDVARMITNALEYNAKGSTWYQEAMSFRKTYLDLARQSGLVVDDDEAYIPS", "text": "isothermal titration calorimetry on Bdf2 bromodomain (Bdf2^9-123) | confirmed direct and specific binding of I-BET151 to their AcK recognition sites"}, "[2]": {"biological_target": "T2, Bdf3 bromodomain (Bdf3^32-150) (Trypanosoma brucei, UniProt Q383S2)", "T2 construct": "gene Tb11.01.1830; bromodomain, residues 32-150, amplified from genomic DNA, pET28a with N-terminal PreScission-cleavable His6 tag, E. coli; strain-construction section prints a conflicting locus Tb427.01.1830", "T2 sequence (Q383S2 32-150)": "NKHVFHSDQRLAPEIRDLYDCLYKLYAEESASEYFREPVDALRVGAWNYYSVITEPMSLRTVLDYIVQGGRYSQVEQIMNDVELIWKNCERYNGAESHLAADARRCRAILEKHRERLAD", "text": "isothermal titration calorimetry on Bdf3 bromodomain (Bdf3^32-150) | confirmed direct and specific binding of I-BET151 to their AcK recognition sites"}, "[3]": {"biological_target": "T2, Bdf3 bromodomain (Bdf3^32-150)", "settings": "15°C, pH 7.5, 20 mM Hepes, 150 mM NaCl, 0.5 mM TCEP, 1% DMSO"}, "[4]": {"biological_target": "T1, Bdf2 bromodomain (Bdf2^9-123)", "settings": "15°C, pH 7.5, 20 mM Hepes, 150 mM NaCl, 0.5 mM TCEP, 1% DMSO"}}}
{"compound": "COc1cc2c(cc1-c1c(C)noc1C)ncc1[nH]c(=O)n([C@H](C)c3ccccn3)c12", "note": "[I-BET151]", "values": [{"measurement": "Kd", "setting": "[1]", "value": "225 ± 5", "unit": "µM"}, {"measurement": "Kd", "setting": "[2]", "value": "175 ± 10", "unit": "µM"}]}
{"compound": "Cc1sc2c(c1C)C(c1ccc(Cl)cc1)=N[C@@H](CC(=O)OC(C)(C)C)c1nnc(C)n1-2", "note": "[JQ1]", "values": [{"measurement": "no binding detected", "setting": "[3]", "value": "we could not detect binding of another well characterized bromodomain inhibitor, JQ1"}, {"measurement": "no binding detected", "setting": "[4]", "value": "we could not detect binding of another well characterized bromodomain inhibitor, JQ1"}]}
